Entries after “also recorded” stand apart in the source; their conditions may differ.
Experiments:
[1] = tested on: subjects with PSC and suspected liver fibrosis; test: Phase 2a INTEGRIS-PSC: Itch Numerical Rating Scale (NRS); assay type: in vivo, human
Experimental: In one embodiment is provided a method of reducing itch or pruritus (chronic itching). Itch can be quantified on a 0-10 scale using the Peak Pruritus Numerical Rating Scale (NRS), where 0 is “no itch” and 10 is “worst imaginable itch” over the past 24 hours (Yosipovitch et al., British Journal of Dermatology (2019) 181:761-769, incorporated by reference herein in its entirety). In embodiments, a method of reducing pruritus in a human who has fibrotic liver disease is provided, comprising administering to the human(S)-4-((2-methoxyethyl)(4-(5,6,7,8-tetrahydro-1,8-naphthyridin-2-yl)butyl)amino)-2-(quinazolin-4-ylamino)butanoic acid, or a pharmaceutically acceptable salt thereof. In embodiments, a method of reducing (e.g., ameliorating) pruritus in a human who has fibrotic liver disease (e.g., primary sclerosing cholangitis) is provided, comprising administering to the human(S)-4-((2-methoxyethyl)(4-(5,6,7,8-tetrahydro-1,8-naphthyridin-2-yl)butyl)amino)-2-(quinazolin-4-ylamino)butanoic acid, or a pharmaceutically acceptable salt thereof, as compared to a human who has not been administered(S)-4-((2-methoxyethyl)(4-(5,6,7,8-tetrahydro-1,8-naphthyridin-2-yl)butyl)amino)-2-(quinazolin-4-ylamino)butanoic acid, or a pharmaceutically acceptable salt thereof. […] In further embodiments, pruritus is reduced as measured by a change in itch numerical rating scale from between about 0.8 and about-0.2 at about 12 weeks following a first administration of (S)-4-((2-methoxyethyl)(4-(5,6,7,8-tetrahydro-1,8-naphthyridin-2-yl)butyl)amino)-2-(quinazolin-4-ylamino)butanoic acid, or a pharmaceutically acceptable salt thereof to the human. […]

[2] = Phase 2a INTEGRIS-PSC: plasma concentrations (total and unbound); assay type: in vivo, human; settings: 40, 80, 160 mg once daily, 12 weeks
From the text: The pharmacokinetic, pharmacodynamic, and pharmacogenomic assessments included the following: • a) PK: plasma samples for PK analysis (total and unbound(S)-4-((2-methoxyethyl)(4-(5,6,7,8-tetrahydro-1,8-naphthyridin-2-yl)butyl)amino)-2-(quinazolin-4-ylamino)butanoic acid concentrations) were obtained. • b) Biomarkers: plasma, serum (Parts 1, 2, and 3), and urine (Parts 1 and 2) samples were obtained. • c) Pharmacogenomics: a whole blood sample for deoxyribonucleic acid (DNA) isolation was collected before dosing on Day 1 from each subject in the study.
Blood samples for determination of plasma concentrations of (S)-4-((2-methoxyethyl)(4-(5,6,7,8-tetrahydro-1,8-naphthyridin-2-yl)butyl)amino)-2-(quinazolin-4-ylamino)butanoic acid are obtained before and at least 2 hours after administration of (S)-4-((2-methoxyethyl)(4-(5,6,7,8-tetrahydro-1,8-naphthyridin-2-yl)butyl)amino)-2-(quinazolin-4-ylamino)butanoic acid on Day 1, at Weeks 4 and 12(Parts 1, 2, and 3), Week 24 (Part 3 only), and at early termination (if possible, for any subject who prematurely discontinues from the study). The actual time dosing and the actual time of blood collection is recorded. […]

## COCCN(CCCCc1ccc2c(n1)NCCC2)CC[C@H](Nc1ncnc2ccccc12)C(=O)O [Bexotegrast, (S)-4-((2-methoxyethyl)(4-(5,6,7,8-tetrahydro-1,8-naphthyridin-2-yl)butyl)amino)-2-(quinazolin-4-ylamino)butanoic acid]
[1]; 320 mg, over 24 weeks, relative to an increase on placebo, Example B-5
  Itch Numerical Rating Scale (NRS) score: did not increase; also recorded: stable score
[1]; 40, 80, 160 mg, Week 12, statistical significance for the 160 mg dose, Example B-3
  itch (NRS) relative to placebo: dose dependent reductions
[1]; 40-320 mg, Week 12, statistical significance for the 160 mg, 320 mg groups, Example B-4
  itch (NRS) relative to the placebo: dose-dependent reductions
[2]
  total and unbound plasma concentrations vs dose: increased with dose

— patent US20250120975A1, “INTEGRIN INHIBITORS FOR TREATMENT OF PRIMARY SCLEROSING CHOLANGITIS” (Pliant Therapeutics, Inc., priority 2023, published 2025)
